Measured values as given in paper PMC9506414, “Novel 2,6,9-Trisubstituted Purines as Potent CDK Inhibitors Alleviating Trastuzumab-Resistance of HER2-Positive Breast Cancers” (Pharmaceuticals, 2022).

Tests used:
CDK12/CyclinK = CDK12/CyclinK (Homo sapiens, UniProt Q9NYV4); test: Kinome-wide inhibition profiling; assay type: biochemical; parameters: purchased Reaction Biology Corp
Procedure: (§1) In vitro CDK12/cyclinK assays for all compounds and in vitro kinome-wide inhibition profiling of 30d at 10 μM were performed by a CRO company (Reaction Biology Corp., San Diego, CA, USA).

HCC1954 cells = test: Combination with trastuzumab, growth inhibition; assay type: cell-based, human; conditions: 40 nM 30d with multiple doses of trastuzumab, 72 h
Procedure: (§2) Additionally, we examined a combination effect in both SK-Br3 and HCC1954 cells.
(§3) Breast-cancer cells in culture media (100 μL volume/well, 5000 SK-Br3 cells/well, 1000 HCC-1954 cells/well) were seeded in tissue culture-treated 96-well plates, and incubated at a cell incubator for 24 h. Serially diluted compounds (3-fold, 10 point from 10 mM, duplicated) were pre-plated and 500 nL of compound solutions were pin-transferred to the cells in the assay plates using pintool system (JANUS liquid handler, PerkinElmer, Waltham, MA, USA) and incubated at a cell incubator for 72 h. Cell-titer Glo^TM reagent (50 μL, Promega Corp., Madison, WI, USA) was added to each well, and the luminescence signal was read using an Envision^TM plate reader (PerkinElmer, Waltham, MA, USA). The titration curve fitting and IC50 values were generated using Prism 7.0 s/w (GraphPad, San Diego, CA, USA).

SK-Br3 cells = test: Combination with trastuzumab, growth inhibition; assay type: cell-based, human; conditions: 40 nM 30d with multiple doses of trastuzumab, 72 h
Procedure: as §2, §3

PHKg2 = target: T1, PHKg2 (Homo sapiens, UniProt P15735); test: Kinome-wide inhibition profiling; assay type: biochemical
T1 construct: purchased Reaction Biology Corp
Procedure: as §1

AKT2 = target: T2, AKT2 (Homo sapiens, UniProt P31751); test: Kinome-wide inhibition profiling; assay type: biochemical
T2 construct: purchased Reaction Biology Corp
Procedure: as §1

ERK2 = target: T3, ERK2 (Homo sapiens, UniProt P28482); test: Kinome-wide inhibition profiling; assay type: biochemical
T3 construct: purchased Reaction Biology Corp
Procedure: as §1

CDK7 = test system: CDK7; parameters: method as in HMS LINCS database; conditions: 10 μM, ref HMS LINCS database; cited from earlier work
CLK2 = target: T4, CLK2 (Homo sapiens, UniProt P49760); parameters: method as in HMS LINCS database; conditions: 10 μM, ref HMS LINCS database; cited from earlier work
T4 construct: purchased Reaction Biology Corp

CDKL1 = test system: CDKL1; parameters: method as in HMS LINCS database; conditions: 10 μM, ref HMS LINCS database; cited from earlier work
STK36 = test system: STK36; parameters: method as in HMS LINCS database; conditions: 10 μM, ref HMS LINCS database; cited from earlier work
CDKL2 = test system: CDKL2; parameters: method as in HMS LINCS database; conditions: 10 μM, ref HMS LINCS database; cited from earlier work
CDK5 = test system: CDK5; parameters: method as in HMS LINCS database; conditions: 10 μM, ref HMS LINCS database; cited from earlier work
HIPK2 = target: T5, HIPK2 (Homo sapiens, UniProt Q9H2X6); parameters: method as in HMS LINCS database; conditions: 10 μM, ref HMS LINCS database; cited from earlier work
T5 construct: purchased Reaction Biology Corp

DYRK1A = target: T6, DYRK1A (Homo sapiens, UniProt Q13627); parameters: method as in HMS LINCS database; conditions: 10 μM, ref HMS LINCS database; cited from earlier work
T6 construct: purchased Reaction Biology Corp

CDK4-cyclinD1 = test system: CDK4-cyclinD1; parameters: method as in HMS LINCS database; conditions: 10 μM, ref HMS LINCS database; cited from earlier work
ERK8 = test system: ERK8; parameters: method as in HMS LINCS database; conditions: 10 μM, ref HMS LINCS database; cited from earlier work

CDK12/CyclinK, sequence (Q9NYV4 whole entry): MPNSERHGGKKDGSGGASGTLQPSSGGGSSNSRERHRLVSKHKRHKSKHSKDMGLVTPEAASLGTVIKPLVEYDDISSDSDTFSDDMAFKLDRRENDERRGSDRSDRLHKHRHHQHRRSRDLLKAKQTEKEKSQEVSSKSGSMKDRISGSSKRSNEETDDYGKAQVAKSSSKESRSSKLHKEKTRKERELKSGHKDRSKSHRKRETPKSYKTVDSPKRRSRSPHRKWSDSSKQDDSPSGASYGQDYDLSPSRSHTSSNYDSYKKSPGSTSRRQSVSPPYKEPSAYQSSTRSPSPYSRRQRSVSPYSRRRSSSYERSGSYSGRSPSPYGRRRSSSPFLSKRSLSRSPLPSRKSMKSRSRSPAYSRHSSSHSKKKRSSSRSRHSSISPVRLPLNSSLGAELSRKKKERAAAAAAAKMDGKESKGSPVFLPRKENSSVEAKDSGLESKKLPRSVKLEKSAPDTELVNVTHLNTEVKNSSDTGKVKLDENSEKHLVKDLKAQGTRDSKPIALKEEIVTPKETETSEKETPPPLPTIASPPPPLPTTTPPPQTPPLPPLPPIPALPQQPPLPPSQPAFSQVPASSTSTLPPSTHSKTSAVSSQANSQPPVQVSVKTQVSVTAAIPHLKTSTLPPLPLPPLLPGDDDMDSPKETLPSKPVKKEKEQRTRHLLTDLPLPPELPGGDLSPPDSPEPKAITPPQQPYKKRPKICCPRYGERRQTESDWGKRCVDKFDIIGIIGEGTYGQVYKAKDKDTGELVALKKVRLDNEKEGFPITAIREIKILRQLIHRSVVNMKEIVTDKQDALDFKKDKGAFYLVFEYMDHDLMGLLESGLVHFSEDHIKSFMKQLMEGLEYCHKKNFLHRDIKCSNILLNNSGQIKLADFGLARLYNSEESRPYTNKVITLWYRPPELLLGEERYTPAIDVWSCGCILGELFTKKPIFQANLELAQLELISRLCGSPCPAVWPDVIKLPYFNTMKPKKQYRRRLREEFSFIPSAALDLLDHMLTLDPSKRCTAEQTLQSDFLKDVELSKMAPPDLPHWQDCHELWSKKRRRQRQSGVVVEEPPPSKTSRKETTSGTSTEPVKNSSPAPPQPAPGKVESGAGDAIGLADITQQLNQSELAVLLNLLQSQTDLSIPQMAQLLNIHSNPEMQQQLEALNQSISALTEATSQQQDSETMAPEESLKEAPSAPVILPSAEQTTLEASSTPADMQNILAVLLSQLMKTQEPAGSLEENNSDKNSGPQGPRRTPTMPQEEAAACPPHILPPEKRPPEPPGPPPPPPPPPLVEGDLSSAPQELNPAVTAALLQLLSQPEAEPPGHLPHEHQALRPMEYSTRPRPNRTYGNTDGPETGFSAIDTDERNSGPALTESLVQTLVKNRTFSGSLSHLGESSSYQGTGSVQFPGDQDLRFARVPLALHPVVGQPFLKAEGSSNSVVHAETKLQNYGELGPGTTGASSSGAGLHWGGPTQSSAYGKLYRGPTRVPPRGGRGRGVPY
CDK12/CyclinK, sequence (O75909 whole entry partner): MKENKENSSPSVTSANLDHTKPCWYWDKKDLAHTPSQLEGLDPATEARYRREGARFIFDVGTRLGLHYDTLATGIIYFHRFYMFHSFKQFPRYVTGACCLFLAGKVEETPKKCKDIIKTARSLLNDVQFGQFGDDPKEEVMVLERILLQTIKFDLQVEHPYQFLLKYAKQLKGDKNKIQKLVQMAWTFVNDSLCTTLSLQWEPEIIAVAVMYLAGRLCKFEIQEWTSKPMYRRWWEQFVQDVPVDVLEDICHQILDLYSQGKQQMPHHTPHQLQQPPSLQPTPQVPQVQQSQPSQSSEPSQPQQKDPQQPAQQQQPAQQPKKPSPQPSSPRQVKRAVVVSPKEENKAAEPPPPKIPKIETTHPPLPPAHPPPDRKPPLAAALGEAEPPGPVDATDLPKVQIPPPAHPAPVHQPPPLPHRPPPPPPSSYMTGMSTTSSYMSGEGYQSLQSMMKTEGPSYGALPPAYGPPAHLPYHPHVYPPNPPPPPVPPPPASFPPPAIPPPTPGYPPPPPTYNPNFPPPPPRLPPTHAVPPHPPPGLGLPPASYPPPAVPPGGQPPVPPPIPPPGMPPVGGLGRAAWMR
T2 sequence (P31751 whole entry): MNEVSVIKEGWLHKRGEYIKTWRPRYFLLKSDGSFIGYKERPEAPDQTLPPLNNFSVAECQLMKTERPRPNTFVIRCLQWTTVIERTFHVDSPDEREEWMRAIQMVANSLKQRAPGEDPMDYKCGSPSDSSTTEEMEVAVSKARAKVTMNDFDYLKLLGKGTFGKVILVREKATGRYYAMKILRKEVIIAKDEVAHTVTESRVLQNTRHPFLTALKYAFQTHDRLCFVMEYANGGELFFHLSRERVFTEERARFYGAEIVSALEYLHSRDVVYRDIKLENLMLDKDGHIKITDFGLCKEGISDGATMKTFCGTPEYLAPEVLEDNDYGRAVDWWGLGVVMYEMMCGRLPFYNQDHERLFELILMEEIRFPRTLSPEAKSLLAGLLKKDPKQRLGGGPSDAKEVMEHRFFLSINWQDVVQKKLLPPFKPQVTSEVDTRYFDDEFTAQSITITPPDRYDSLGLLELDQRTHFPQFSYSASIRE
T4 sequence (P49760 whole entry): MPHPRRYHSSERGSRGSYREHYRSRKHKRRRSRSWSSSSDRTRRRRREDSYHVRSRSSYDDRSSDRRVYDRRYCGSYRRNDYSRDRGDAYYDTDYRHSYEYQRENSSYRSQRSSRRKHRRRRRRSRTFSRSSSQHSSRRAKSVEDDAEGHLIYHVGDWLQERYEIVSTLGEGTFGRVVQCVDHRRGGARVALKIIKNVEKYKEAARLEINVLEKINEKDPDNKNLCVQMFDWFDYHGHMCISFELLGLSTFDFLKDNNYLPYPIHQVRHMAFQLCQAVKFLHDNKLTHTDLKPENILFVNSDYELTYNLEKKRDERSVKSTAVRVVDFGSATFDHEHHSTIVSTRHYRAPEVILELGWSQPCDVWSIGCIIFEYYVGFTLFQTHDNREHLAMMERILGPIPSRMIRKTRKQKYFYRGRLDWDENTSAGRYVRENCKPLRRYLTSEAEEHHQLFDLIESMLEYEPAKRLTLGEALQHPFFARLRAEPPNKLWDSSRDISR
T5 sequence (Q9H2X6 whole entry): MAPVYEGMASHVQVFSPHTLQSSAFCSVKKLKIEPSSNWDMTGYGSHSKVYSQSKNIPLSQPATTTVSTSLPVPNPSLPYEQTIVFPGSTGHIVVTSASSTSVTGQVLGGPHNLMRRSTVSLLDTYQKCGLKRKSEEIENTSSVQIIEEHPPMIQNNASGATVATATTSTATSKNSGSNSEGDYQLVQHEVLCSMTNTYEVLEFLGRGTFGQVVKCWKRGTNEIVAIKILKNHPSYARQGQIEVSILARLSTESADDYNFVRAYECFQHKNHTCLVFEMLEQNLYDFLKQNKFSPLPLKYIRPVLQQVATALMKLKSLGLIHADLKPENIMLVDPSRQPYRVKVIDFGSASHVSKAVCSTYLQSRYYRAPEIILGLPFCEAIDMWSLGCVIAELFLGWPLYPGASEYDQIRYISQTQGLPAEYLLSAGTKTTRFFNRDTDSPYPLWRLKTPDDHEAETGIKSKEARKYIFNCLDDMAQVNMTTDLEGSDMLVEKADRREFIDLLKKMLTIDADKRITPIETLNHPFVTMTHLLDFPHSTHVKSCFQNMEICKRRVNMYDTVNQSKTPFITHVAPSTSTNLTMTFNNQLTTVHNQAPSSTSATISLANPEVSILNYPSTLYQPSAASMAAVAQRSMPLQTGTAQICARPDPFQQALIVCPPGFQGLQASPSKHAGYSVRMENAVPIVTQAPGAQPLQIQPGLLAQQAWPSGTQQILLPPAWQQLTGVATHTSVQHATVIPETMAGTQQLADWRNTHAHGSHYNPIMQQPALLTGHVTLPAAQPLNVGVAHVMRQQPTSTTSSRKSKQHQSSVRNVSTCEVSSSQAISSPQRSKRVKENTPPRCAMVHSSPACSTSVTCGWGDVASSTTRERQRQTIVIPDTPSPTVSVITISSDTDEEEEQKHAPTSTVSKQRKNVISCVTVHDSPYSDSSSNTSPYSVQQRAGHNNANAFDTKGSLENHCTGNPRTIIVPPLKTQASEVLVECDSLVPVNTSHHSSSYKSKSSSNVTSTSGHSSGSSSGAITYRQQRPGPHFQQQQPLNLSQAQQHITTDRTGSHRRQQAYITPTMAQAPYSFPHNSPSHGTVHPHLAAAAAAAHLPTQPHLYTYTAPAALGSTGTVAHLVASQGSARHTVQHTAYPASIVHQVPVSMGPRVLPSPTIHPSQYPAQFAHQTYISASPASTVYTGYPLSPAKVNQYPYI
T3 sequence (P28482 whole entry): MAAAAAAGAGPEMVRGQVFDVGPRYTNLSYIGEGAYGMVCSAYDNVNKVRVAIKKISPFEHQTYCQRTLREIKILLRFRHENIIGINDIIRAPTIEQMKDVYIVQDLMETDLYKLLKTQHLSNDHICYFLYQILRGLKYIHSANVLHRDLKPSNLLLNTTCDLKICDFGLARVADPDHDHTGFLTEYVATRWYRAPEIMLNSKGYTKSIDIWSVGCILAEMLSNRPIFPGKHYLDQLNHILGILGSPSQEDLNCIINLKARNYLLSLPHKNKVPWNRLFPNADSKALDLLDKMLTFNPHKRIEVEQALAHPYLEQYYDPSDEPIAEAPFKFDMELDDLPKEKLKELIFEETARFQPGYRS
T1 sequence (P15735 whole entry): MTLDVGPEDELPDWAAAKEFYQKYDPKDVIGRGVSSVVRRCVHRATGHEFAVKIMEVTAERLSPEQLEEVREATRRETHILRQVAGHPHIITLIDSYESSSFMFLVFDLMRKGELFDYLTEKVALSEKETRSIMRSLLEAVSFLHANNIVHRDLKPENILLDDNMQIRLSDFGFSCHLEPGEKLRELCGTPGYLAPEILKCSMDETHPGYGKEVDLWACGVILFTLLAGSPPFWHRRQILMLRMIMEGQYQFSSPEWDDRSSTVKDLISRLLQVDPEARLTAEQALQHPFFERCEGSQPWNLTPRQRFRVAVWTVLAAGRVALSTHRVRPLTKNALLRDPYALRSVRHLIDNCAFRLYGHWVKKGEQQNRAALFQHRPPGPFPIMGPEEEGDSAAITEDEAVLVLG

Row | SMILES | inhibition at 10 µM (CDK12/CyclinK) [%] | remaining activity at 10 µM (CDK12/CyclinK) [%] | combination effect with trastuzumab in growth inhibition (HCC1954 cells) | combination effect with trastuzumab in growth inhibition (SK-Br3 cells) | remaining activity at 10 µM (PHKg2) [%] | remaining activity at 10 µM (AKT2) [%] | remaining activity at 10 µM (ERK2) [%] | % control (CDK7) [%] | % control (CLK2) [%] | % control (CDKL1) [%] | % control (STK36) [%] | % control (CDKL2) [%] | % control (CDK5) [%] | % control (HIPK2) [%] | % control (DYRK1A) [%] | % control (CDK4-cyclinD1) [%] | % control (ERK8) [%]
1 | CCn1cnc2c(NCc3ccc(-c4ccccn4)nc3)nc(-c3ccc(N)nc3)nc21 [Compound 30d, N-([2,2′-Bipyridin]-5-ylmethyl)-2-(6-aminopyridin-3-yl)-9-ethyl-9H-purin-6-amine] | > 95 | 1.1 | modest level of synergism | modest level of synergism | 56.9 | 100 | 10.6 |  |  |  |  |  |  |  |  |  | 
2 | CCc1cnn2c(NCc3ccc[n+]([O-])c3)cc(N3CCCC[C@H]3CCO)nc12 [Dinaciclib] |  |  |  |  |  |  |  | 0.4 | 4.2 | 9.1 | 7.8 | 10 | 1.8 | 3.6 | 6.0 | 0.1 | 1.0
